Results on 6 molecules are retold here after ChEMBL document CHEMBL1201862, “PubChem BioAssay data set” (2004).

Activity calls are given as the source filed them.

The nature of assay [1]: Counterscreen for activators of the function of SWI/SNF related, matrix associated, actin dependent regulator of chromatin, subfamily a, member 2 (SMARCA2, BRM): Luminescence-based cell-based high throughput dose response assay to identify non-selective compounds using the VP16 reporter assay. In kind it is functional. Background: Counterscreens check selectivity or assay interference.

Assay [2] concerns Vero. Description: cells. The following applies: Chlorocebus sabaeus. The format is functional.
In assay [3] the test system is Vero. Description: mammalian cell viability reduction – secondary assay, cytotoxicity control for West Nile virus antiviral project, dose response (AID 1650). In kind it is functional. The following applies: Chlorocebus sabaeus.
The target in assay [4] is SWI/SNF-related matrix-associated actin-dependent regulator of chromatin subfamily A member 2 (Homo sapiens, UniProt P51531). As to the kind of experiment: Luminescence-based cell-based high throughput dose response assay to identify activators of the function of SWI/SNF related, matrix associated, actin dependent regulator of chromatin, subfamily a, member 2 (SMARCA2, BRM). In kind it is functional.

Assay [5] concerns P388. As to the kind of experiment: cells. The following applies: Mus musculus. The format is functional.
Assay [6] addresses Dual specificity tyrosine-phosphorylation-regulated kinase 1A (Rattus norvegicus, UniProt Q63470). The format is biochemical, Homo sapiens.
Assay [7] is described as follows: HPDE-C7 pancreatic duct cell viability loss – fluorescence, HTS (AID 430). The format is functional, cell-based. As to conditions: Homo sapiens.
The target in assay [8] is Voltage-dependent T-type calcium channel subunit alpha-1H (Homo sapiens, UniProt O95180). In kind it is functional.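 Also: channel activity triggered by adding a high calcium stimulation buffer.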
The subject of assay [9] is P388/ADR. As to the kind of experiment: cells. In kind it is functional. The following applies: Mus musculus.
The target of assay [10] is Galanin receptor type 2 (Homo sapiens, UniProt O43603). As to the kind of experiment: Dose Response cell-based high-throughput screening assay to identify agonists of galanin receptor 2 (GALR2). [Related pubchem assays: 864 ]. The format is functional.
A short description of assay [11]: Luminescence Cell-Based Dose Response HTS to Identify Inhibitors of 5'UTR Stem-Loop Driven Prion Protein mRNA Translation in H4 Neuroglioblastoma Cells. [Related pubchem assays: 1827 (Project Summary), 1813 (Primary HTS)]. The format is functional.
In assay [12] the test system is SN12K1. Description: cells. The format is functional. As to conditions: Homo sapiens.
The subject of assay [13] is Streptococcus sp. 'group A'. Description: Streptococcus pyogenes SK(-)GAS viability under kanamycin – luminescence, BacTiterGlo, confirmation, counter-screen for streptokinase expression inhibitor project, dose response (AID 1900). In kind it is functional, organism-based.
Assay [14] in a line: viability of HCT116 lacking mutant beta-catenin – cell-based, human colon tumor, dose response (AID 1045).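 Also: HCT116 colon tumor cells with beta catenin knocked out; cells exposed to compound for 60 hours.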 The format is functional.
Assay [15] in a line: viability loss of HPDE-C7K cells – cell-based, fluorescence, HTS, primary screen (AID 431). The following applies: Homo sapiens. The format is functional.
Assay [16] has as its system INS1. Description: INS-1E survival protection against cytokine death – cell-based, luminescence, retest, dose response (AID 449756).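 Also: cell death triggered by IL-1 beta plus TNF-alpha plus IFN-gamma mixture; protective hits raise ATP signal compared with cytokine alone wells.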 In kind it is functional. As to conditions: Rattus norvegicus.
The nature of assay [17]: viability of PTEN-deleted HCT116 cells – cell-based, HCT116 PTEN knockout, dose response (AID 1047).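 Also: HCT116 colon tumor cells with PTEN knocked out; cells exposed to compound for 60 hours before readout; potency for loss of cell viability measured by luminescence.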 The format is functional.
In assay [18] the test system is Streptococcus. Description: GAS UMAA2166 growth inhibition – luminescence, BacTiterGlo, counter-screen for streptokinase expression inhibitor project, dose response (AID 1915).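 Also: potency for reduction of bacterial viability or growth.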 The format is functional, organism-based.
Assay [19] deals with Cytochrome P450 2C9 (Homo sapiens, UniProt P11712). The following applies: Potency.
For assay [20], the target named is T1, Streptokinase A (Streptococcus pyogenes serotype M1, UniProt P10520).
T1 sequence (P10520 whole entry): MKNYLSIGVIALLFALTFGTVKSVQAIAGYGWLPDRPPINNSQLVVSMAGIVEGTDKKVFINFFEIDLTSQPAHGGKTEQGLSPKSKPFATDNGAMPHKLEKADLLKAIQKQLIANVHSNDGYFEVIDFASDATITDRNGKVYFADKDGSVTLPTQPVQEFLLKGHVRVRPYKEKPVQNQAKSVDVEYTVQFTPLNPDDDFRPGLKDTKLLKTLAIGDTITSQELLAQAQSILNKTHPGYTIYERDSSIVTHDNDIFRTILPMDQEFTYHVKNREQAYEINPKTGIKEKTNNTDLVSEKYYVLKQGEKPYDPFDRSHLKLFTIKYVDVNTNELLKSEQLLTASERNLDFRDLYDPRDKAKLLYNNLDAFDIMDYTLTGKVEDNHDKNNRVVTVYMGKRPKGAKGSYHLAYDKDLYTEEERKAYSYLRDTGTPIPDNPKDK
As to the kind of experiment: viability-normalized secreted streptokinase activity reduction – plasminogen activation absorbance, OD405, dose response (AID 1914).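 Also: secreted streptokinase activity via plasminogen activation per viability signal from cell pellet.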 The format is functional, Streptococcus pyogenes M1 GAS.

Assay [21] concerns the target T2, Bcl-2-related protein A1 (Mus musculus, UniProt Q07440).
T2 sequence (Q07440 whole entry): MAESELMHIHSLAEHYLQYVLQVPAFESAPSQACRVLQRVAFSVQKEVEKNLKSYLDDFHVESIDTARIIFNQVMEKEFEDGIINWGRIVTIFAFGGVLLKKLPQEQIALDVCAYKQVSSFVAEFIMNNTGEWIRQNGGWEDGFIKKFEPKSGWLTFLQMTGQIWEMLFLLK
Description: Bfl-1 binding inhibitors, SAR follow-up, biochemical, fluorescence polarization (AID 1070). On the technique in general: Fluorescence polarisation rises when a labelled molecule tumbles more slowly, as on binding a larger partner.

For assay [22], the target named is T2, Bcl-2-related protein A1. As to the kind of experiment: small-molecule antagonists of Bfl-1/BH3 interaction – biochemical, TR-FRET, mouse Bfl-1, confirmation (AID 621).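 Also: TR-FRET binding of GST-Bfl-1 to FITC-labelled Bid peptide via terbium antibody.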
For assay [23], the target named is Glyceraldehyde-3-phosphate dehydrogenase (Homo sapiens, UniProt P04406).
The nature of assay [24]: M. tuberculosis H37Rv growth inhibitors, H37Rv strain (AID 1626). The format is functional.
Assay [25] concerns the target NADPH oxidase 1 (Homo sapiens, UniProt Q9Y5S8). Description: Late-stage luminescence-based cell-based dose response assay to identify inhibitors of NADPH oxidase 1 (NOX1): Synthesized analogs 2. In kind it is functional.
Assay [26] addresses T3, Caspase-6 (Homo sapiens, UniProt P55212).
T3 sequence (P55212 whole entry): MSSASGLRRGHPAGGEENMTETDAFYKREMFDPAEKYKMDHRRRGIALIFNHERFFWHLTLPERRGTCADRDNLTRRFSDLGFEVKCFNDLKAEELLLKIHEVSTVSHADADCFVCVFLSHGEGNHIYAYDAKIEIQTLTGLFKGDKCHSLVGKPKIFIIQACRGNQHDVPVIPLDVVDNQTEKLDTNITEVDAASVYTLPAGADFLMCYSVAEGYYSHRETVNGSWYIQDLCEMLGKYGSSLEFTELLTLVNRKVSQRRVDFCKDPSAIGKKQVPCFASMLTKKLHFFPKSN
Description: inhibition of CASP6 peptide cleavage – biochemical, VEID-R110 fluorescence, cherry-pick, dose response (AID 720632).

Assay [27] has as its target T4, Small ubiquitin-related modifier 1 (Homo sapiens, UniProt P63165). As to the kind of experiment: SUMO1 protein-protein binding blockers, potency – biochemical, FRET, dose response (AID 624383). The following applies: read-out: IC50_Mean. The format is functional.
Assay [28] has as its target T5, Carboxy-terminal domain RNA polymerase II polypeptide A small phosphatase 1 (Homo sapiens, UniProt Q9GZU7).
T5 sequence (Q9GZU7 whole entry): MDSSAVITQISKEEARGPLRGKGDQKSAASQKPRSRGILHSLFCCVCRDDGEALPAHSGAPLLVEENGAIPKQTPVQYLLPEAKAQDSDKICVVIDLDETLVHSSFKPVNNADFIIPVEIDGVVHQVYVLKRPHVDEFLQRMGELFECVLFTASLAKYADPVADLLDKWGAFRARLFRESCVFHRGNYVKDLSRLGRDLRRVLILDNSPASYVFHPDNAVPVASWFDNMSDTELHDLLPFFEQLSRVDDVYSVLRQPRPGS
Description: CTDSP1 inhibitors, concentration-response, biochemical, absorbance readout, ultra-high-throughput screen actives (AID 540297). The format is functional.

For assay [29], the target named is Bcl-2-like protein 1 (Homo sapiens, UniProt Q07817). As to the kind of experiment: blockers of BCLXL peptide binding – biochemical, fluorescence polarization, 1536-well, selectivity assay for MCL1 inhibitor project, dose response (AID 2218).
The target of assay [30] is Induced myeloid leukemia cell differentiation protein Mcl-1 (Homo sapiens, UniProt Q07820). Description: blockers of MCL1 binding to BIM peptide – biochemical, fluorescence polarization, BIM-BH3 peptide, 1536-well, dose response (AID 2217).
Assay [31] addresses T4, Small ubiquitin-related modifier 1. As to the kind of experiment: SUMO1 protein interaction blockers, potency – biochemical, fluorescence polarization, uHTS hits, dose response (AID 624382). As to conditions: read-out: IC50_Mean. In kind it is functional.

T4 sequence (P63165 whole entry, the tested form may be a part): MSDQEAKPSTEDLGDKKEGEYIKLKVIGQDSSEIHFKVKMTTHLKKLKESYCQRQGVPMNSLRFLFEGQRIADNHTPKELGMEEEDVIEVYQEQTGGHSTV
Chain of Induced myeloid leukemia cell differentiation protein Mcl-1 (Q07820 whole entry): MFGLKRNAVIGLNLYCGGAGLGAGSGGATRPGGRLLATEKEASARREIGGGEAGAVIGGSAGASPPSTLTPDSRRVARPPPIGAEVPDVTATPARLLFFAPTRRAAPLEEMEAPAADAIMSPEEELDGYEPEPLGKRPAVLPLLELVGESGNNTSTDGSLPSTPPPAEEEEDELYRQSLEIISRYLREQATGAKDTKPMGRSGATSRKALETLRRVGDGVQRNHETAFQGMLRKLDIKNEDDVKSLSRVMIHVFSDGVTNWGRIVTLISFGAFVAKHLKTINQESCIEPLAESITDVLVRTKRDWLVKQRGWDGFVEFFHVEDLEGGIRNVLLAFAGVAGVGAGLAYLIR
Chain of Bcl-2-like protein 1 (Q07817 whole entry): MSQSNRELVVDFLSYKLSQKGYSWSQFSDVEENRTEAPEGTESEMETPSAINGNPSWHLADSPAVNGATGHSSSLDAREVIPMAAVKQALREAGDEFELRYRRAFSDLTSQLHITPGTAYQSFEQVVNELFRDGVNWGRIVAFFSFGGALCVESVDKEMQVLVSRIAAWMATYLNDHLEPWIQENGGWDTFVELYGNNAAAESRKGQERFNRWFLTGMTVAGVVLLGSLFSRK
Chain of NADPH oxidase 1 (Q9Y5S8 whole entry): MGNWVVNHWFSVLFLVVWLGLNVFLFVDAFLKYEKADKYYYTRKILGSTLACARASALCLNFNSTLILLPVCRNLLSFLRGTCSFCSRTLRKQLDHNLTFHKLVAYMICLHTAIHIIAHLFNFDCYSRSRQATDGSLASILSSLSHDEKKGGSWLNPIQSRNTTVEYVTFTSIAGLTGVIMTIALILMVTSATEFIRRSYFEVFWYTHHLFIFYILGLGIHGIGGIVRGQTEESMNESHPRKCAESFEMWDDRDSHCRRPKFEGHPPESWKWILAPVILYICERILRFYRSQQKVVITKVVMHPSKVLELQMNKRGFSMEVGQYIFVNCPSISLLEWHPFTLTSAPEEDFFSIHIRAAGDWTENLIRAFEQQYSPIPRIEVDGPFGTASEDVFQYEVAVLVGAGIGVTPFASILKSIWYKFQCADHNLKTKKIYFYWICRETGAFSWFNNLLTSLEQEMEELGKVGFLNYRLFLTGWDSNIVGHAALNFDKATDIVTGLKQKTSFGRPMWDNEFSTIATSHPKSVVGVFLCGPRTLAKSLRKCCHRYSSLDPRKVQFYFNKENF
Chain of Galanin receptor type 2 (O43603 whole entry): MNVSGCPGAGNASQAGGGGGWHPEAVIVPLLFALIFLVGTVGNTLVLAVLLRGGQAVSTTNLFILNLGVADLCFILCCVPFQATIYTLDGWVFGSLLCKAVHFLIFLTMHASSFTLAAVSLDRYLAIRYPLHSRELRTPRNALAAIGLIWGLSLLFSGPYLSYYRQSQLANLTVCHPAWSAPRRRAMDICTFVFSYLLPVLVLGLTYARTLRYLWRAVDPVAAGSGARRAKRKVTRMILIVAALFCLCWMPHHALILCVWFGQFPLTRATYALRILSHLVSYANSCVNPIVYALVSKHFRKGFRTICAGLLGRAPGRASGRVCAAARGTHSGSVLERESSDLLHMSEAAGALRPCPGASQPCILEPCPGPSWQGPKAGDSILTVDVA
Chain of SWI/SNF-related matrix-associated actin-dependent regulator of chromatin subfamily A member 2 (P51531 whole entry): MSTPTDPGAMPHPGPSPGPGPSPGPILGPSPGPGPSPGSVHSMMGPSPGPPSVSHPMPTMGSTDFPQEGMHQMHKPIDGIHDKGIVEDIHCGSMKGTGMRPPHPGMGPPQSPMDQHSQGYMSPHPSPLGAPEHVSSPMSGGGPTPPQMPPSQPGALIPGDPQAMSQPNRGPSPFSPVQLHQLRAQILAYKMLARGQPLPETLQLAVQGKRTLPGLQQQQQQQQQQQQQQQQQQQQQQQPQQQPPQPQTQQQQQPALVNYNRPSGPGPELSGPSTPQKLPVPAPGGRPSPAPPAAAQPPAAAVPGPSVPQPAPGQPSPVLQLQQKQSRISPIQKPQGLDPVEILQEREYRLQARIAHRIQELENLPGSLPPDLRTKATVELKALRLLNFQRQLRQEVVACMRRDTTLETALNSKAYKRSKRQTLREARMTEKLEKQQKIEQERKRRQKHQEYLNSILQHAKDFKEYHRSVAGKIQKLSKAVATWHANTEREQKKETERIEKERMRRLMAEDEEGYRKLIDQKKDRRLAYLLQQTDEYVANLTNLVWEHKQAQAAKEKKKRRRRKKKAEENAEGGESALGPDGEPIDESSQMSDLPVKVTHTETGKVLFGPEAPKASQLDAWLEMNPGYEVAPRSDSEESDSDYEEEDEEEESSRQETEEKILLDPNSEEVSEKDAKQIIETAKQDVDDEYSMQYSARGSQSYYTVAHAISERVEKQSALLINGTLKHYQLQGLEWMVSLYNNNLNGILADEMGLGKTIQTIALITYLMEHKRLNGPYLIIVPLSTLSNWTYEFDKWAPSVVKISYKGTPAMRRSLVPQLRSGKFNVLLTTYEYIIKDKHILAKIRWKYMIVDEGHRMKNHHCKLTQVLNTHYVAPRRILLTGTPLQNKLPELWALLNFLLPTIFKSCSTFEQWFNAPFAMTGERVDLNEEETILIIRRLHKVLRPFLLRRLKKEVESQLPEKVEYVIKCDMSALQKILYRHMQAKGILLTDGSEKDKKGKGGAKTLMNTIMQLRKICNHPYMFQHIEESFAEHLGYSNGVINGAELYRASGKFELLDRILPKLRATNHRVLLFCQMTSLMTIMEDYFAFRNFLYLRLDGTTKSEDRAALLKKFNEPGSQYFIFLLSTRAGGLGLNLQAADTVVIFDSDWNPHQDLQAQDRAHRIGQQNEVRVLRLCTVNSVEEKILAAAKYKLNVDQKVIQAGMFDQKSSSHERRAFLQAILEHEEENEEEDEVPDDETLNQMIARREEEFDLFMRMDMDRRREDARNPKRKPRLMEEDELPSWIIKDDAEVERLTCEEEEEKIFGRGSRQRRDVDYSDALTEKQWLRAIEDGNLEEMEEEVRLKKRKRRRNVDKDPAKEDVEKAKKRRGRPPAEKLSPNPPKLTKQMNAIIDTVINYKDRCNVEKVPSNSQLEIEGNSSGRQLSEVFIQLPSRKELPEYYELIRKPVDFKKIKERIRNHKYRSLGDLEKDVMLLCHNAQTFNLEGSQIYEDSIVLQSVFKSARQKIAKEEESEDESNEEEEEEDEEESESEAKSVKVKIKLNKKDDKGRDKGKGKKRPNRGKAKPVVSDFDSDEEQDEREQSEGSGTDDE
Chain of Glyceraldehyde-3-phosphate dehydrogenase (P04406 whole entry): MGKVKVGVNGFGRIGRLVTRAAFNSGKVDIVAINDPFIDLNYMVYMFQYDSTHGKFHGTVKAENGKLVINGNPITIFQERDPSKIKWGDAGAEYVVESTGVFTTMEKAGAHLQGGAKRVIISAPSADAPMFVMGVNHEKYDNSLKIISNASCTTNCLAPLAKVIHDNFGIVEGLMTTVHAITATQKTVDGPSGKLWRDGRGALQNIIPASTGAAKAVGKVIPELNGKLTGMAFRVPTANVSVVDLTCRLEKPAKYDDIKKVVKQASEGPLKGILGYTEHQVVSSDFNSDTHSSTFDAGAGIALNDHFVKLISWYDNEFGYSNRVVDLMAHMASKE
Chain of Cytochrome P450 2C9 (P11712 whole entry): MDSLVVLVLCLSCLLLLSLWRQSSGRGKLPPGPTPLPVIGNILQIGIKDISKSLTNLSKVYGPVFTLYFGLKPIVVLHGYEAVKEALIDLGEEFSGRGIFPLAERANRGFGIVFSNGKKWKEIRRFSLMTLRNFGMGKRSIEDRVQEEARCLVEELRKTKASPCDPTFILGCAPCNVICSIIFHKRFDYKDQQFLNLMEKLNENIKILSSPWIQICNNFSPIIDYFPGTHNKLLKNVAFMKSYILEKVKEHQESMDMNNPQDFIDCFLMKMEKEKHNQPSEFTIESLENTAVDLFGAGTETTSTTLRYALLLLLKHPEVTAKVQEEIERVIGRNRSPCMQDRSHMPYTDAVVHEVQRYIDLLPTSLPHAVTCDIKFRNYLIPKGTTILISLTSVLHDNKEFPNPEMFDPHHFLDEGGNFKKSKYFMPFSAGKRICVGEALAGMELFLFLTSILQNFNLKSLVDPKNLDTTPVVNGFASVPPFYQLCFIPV

Consider `COCCNC(=O)/C(C#N)=C/C=C/c1ccccc1[N+](=O)[O-]`, for which the EC50 in assay [1] and in assay [4] was > 91.1 µM (inactive) in each case. Also, the cytotoxic concentration (CC50) (commonly the concentration giving 50% cytotoxicity) in assay [2] was 16 µM (active); in assay [3], 13.4 µM (active).

As to `Cc1c2ccncc2c(C)c2c1[nH]c1ccccc12` [ELLIPTECINE], the values for the GI50 in assay [5], in assay [9] and in assay [12] were 0.383 µM (active), 0.824 µM (active) and 0.56 µM (active), respectively. In addition, the figures for the AC50 in assay [6], in assay [16] and in assay [19] were 0.231 µM (active), 2.12 µM (active) and 39.8 µM (inconclusive), respectively. For the same molecule, the EC50 (in general, the concentration at which the effect is half-maximal) is 6.17 µM (active) in [7]; 3.99 µM (active) in assay [8]; > 55.7 µM (not active) in assay [10]; > 120 µM (not active) in [11]; 2.25 µM (active) in [13]; 0.117 µM (active) in assay [14]. In addition, the EC50 in assay [15] is 2.4 µM (active); in [17] it was 0.177 µM (active); in assay [18], 7.7 µM (active); in [20], > 150 µM (not active).

Regarding `O=C1C(Cl)=C(N2CCN(CCO)CC2)C(=O)N1c1cccc([N+](=O)[O-])c1`, the IC50 is 30.9 µM (active) in assay [21], 10.8 µM (active) in [22] and > 100 µM (not active) in assay [23].

Regarding `Cc1ccccc1NC(=O)Nc1ccc(C(F)(F)F)cc1`, the IC50 in [24] is > 100 µM (active).

Consider `C=CC(=O)Nc1ccc2c(c1)Sc1ccccc1N2C`, for which the IC50 in assay [25] is 2.38 µM (active).

`Cc1ccc(C)c(S(=O)(=O)Nc2ccc3oc(C)c(C(=O)O)c3c2)c1`: the AC50 (commonly the concentration giving half of the maximal activity seen) in assay [26] is 3.67 µM (active). Further, the IC50 in assay [27] was 11.3 µM (active); in assay [28] it was 3.21 µM (active); in assay [29], 93.3 µM (not active); in [30] it was 18.2 µM (not active); in assay [31], > 66.6 µM (inactive).
